Converted amounts (≈) assume the structure as drawn.
Legend:
Assay type in all cases: cell-based
[1] = test system: Staphylococcus aureus ATCC29213; assay: MIC, microbroth dilution (NCCLS); conditions: rifS strain, Cation-Adjusted Mueller-Hinton Broth, 37° C., read-out: Antimicrobial activity (MIC)
[2] = test system: Staphylococcus aureus EN1252a gyrA^S84L grlA^S80F; assay: microbe, parasite or virus in culture; conditions: read-out: Antimicrobial activity (MIC)
Procedure: (§1) Representative compounds were assayed for antimicrobial activity as follows: Minimum Inhibitory Concentrations (“MICs”) were determined by the microbroth dilution method as per NCCLS guidelines (National Committee for Clinical Laboratory Standards. 2000. Methods for dilution antimicrobial susceptibility tests for bacteria that grow aerobically, 5th ed. M7-A5. National Committee for Clinical Laboratory Standards, Wayne, Pa.), except that all growth incubations were conducted at 37° C. Bacterial cultures were tested in the following bacteriological media: S. aureus, S. epidermidis, and E. coli in Cation-Adjusted Mueller-Hinton Broth, S. pneumoniae in THY Broth supplemented with 1 mg/mL catalase under 5% CO2 atmosphere, S. pyogenes in THY Broth, E. faecalis in BHI Broth, H. influenzae in BHI Broth supplemented with 0.75 μL of 1 mg/mL NAD and 150 μL of 1 mg/ml hematin per 5 mL, and M. smegmatis in Middlebrook Broth plus ADC Enrichment.
(§2) S. aureus ATCC 29213 RpoB^H418Y is a rifampin-resistant strain with a mutation in RNA polymerase, the biological target of rifamycin antibiotics. […] S. aureus EN1252a gyrA^S84L grlA^S80F is a quinolone-resistant strain due to double mutations to DNA gyrase and topoisomerase IV, the two biological targets for quinolone antibiotics.

[3] = test system: Staphylococcus aureus ATCC29213 rpoB^D417Y; assay: microbe, parasite or virus in culture; conditions: ATCC29213, read-out: Antimicrobial activity (MIC)
Procedure: as §1, §2

[4] = test system: Staphylococcus aureus ATCC29213 rpoB^H418Y; assay: microbe, parasite or virus in culture; conditions: ATCC29213, read-out: Antimicrobial activity (MIC)
Procedure: as §1, §2

[5] = test system: Streptococcus pyogenes ATCC19615; assay: MIC, microbroth dilution (NCCLS); conditions: rifS strain, THY Broth, 37° C., read-out: Antimicrobial activity (MIC)
[6] = test system: Staphylococcus epidermidis ATCC12228; assay: MIC, microbroth dilution (NCCLS); conditions: rifS strain, Cation-Adjusted Mueller-Hinton Broth, 37° C., read-out: Antimicrobial activity (MIC)
[7] = test system: Escherichia coli ATCC25922; assay: MIC, microbroth dilution (NCCLS); conditions: rifS strain, Cation-Adjusted Mueller-Hinton Broth, 37° C., read-out: Antimicrobial activity (MIC)
[8] = test system: Haemophilus influenzae ATCC10211; assay: MIC, microbroth dilution (NCCLS); conditions: rifS strain, BHI Broth with NAD and hematin, 37° C., read-out: Antimicrobial activity (MIC)
[9] = test system: Enterococcus faecalis ATCC29212; assay: MIC, microbroth dilution (NCCLS); conditions: rifS strain, BHI Broth, 37° C., read-out: Antimicrobial activity (MIC)
[10] = test system: Streptococcus pneumoniae ATCC6303; assay: MIC, microbroth dilution (NCCLS); conditions: rifS strain, THY Broth with 1 mg/mL catalase, 5% CO2, 37° C., read-out: Antimicrobial activity (MIC)
[11] = test system: Mycobacterium smegmatis ATCC700084; assay: MIC, microbroth dilution (NCCLS); conditions: Mycolicibacterium smegmatis, rifS strain, Middlebrook Broth plus ADC Enrichment, 37° C., read-out: Antimicrobial activity (MIC)

| Compound | MIC [1] | MIC [2] | MIC [3] | MIC [4] | MIC [5] | MIC [6] | MIC [7] | MIC [8] | MIC [9] | MIC [10] | MIC [11] |
| --- | --- | --- | --- | --- | --- | --- | --- | --- | --- | --- | --- |
| COc1c(N2CCCC(NC(=O)C3CN(C4=C5NC(=O)/C(C)=C\C=C\[C@H](C)[C@H](O)[C@@H](C)[C@@H](O)[C@@H](C)[C@H](OC(C)=O)[C@H](C)[C@@H](OC)/C=C/O[C@@]6(C)Oc7c(C)c(O)c(c(c7C6=O)C4=O)C5=O)C3)C2)c(F)cc2c(=O)c(C(=O)O)cn(C3CC3)c12 (mixture of isomers) [Example 46, 3-{3-[1-(3-Carboxy-1-cyclopropyl-6-fluoro-8-methoxy-4-oxo-1,4-dihydroquinolin-7-yl)-piperidin-3-ylcarbamoyl]-azetidin-1-yl}rifamycin S] | 0.004 to 0.5 µg/mL | 0.004 to 0.5 µg/mL | 0.06 to 32 µg/mL | 0.06 to 16 µg/mL | 0.008 to 0.063 µg/mL | 0.008 to 0.063 µg/mL | 0.125 to 8 µg/mL | 0.125 to 2 µg/mL | 2 to 32 µg/mL | 0.008 to 0.125 µg/mL | 0.5 to 64 µg/mL |
| CO[C@H]1/C=C/O[C@@]2(C)Oc3c(C)c(O)c4c(c3C2=O)C(=O)C(NC2CCN(c3c(F)cc5c(=O)c(C(=O)O)cn(C6CC6)c5c3Cl)C2)=C(NC(=O)/C(C)=C\C=C\[C@H](C)[C@H](O)[C@@H](C)[C@@H](O)[C@@H](C)[C@H](OC(C)=O)[C@@H]1C)C4=O (mixture of isomers) [Example 7, (R/S)-3-[1-(3-Carboxy-8-chloro-1-cyclopropyl-6-fluoro-4-oxo-1,4-dihydroquinolin-7-yl)-pyrrolidin-3-ylamino]rifamycin S] | 0.004 to 0.5 µg/mL (≈ 0.00378 to 0.472 µM) | 0.004 to 0.5 µg/mL (≈ 0.00378 to 0.472 µM) | 0.06 to 32 µg/mL (≈ 0.0566 to 30.2 µM) | 0.06 to 16 µg/mL (≈ 0.0566 to 15.1 µM) | 0.008 to 0.063 µg/mL (≈ 0.00755 to 0.0595 µM) | 0.008 to 0.063 µg/mL (≈ 0.00755 to 0.0595 µM) | 0.125 to 8 µg/mL (≈ 0.118 to 7.55 µM) | 0.125 to 2 µg/mL (≈ 0.118 to 1.89 µM) | 2 to 32 µg/mL (≈ 1.89 to 30.2 µM) | 0.008 to 0.125 µg/mL (≈ 0.00755 to 0.118 µM) | 0.5 to 64 µg/mL |
| CO[C@H]1/C=C/O[C@@]2(C)Oc3c(C)c(O)c4c(O)c(c(CNC5CCN(c6c(F)cc7c(=O)c(C(=O)O)cn(C8CC8)c7c6Cl)C5)c(O)c4c3C2=O)NC(=O)/C(C)=C\C=C\[C@H](C)[C@H](O)[C@@H](C)[C@@H](O)[C@@H](C)[C@H](OC(C)=O)[C@@H]1C (mixture of isomers) [Example 13, (R/S)-3-[1-(8-Chloro-3-carboxy-1-cyclopropyl-6-fluoro-4-oxo-1,4-dihydroquinolin-7-yl)-pyrrolidinyl-3-aminomethyl]rifamycin SV] | 0.004 to 0.5 µg/mL (≈ 0.00372 to 0.465 µM) | 0.004 to 0.5 µg/mL (≈ 0.00372 to 0.465 µM) | 0.06 to 32 µg/mL (≈ 0.0558 to 29.8 µM) | 0.06 to 16 µg/mL (≈ 0.0558 to 14.9 µM) | 0.008 to 0.063 µg/mL (≈ 0.00744 to 0.0586 µM) | 0.008 to 0.063 µg/mL (≈ 0.00744 to 0.0586 µM) | 0.125 to 8 µg/mL (≈ 0.116 to 7.44 µM) | 0.125 to 2 µg/mL (≈ 0.116 to 1.86 µM) | 2 to 32 µg/mL (≈ 1.86 to 29.8 µM) | 0.008 to 0.125 µg/mL (≈ 0.00744 to 0.116 µM) | 0.5 to 64 µg/mL |
| COc1c(N2CCC(NC3=C4NC(=O)/C(C)=C\C=C\[C@H](C)[C@H](O)[C@@H](C)[C@@H](O)[C@@H](C)[C@H](OC(C)=O)[C@H](C)[C@@H](OC)/C=C/O[C@@]5(C)Oc6c(C)c(O)c(c(c6C5=O)C3=O)C4=O)C2)c(F)cc2c(=O)c(C(=O)O)cn(C3CC3)c12 (mixture of isomers) [Example 27] | 0.004 to 0.5 µg/mL (≈ 0.00379 to 0.474 µM) | 0.004 to 0.5 µg/mL (≈ 0.00379 to 0.474 µM) | 0.06 to 32 µg/mL (≈ 0.0569 to 30.3 µM) | 0.06 to 16 µg/mL (≈ 0.0569 to 15.2 µM) | 0.008 to 0.063 µg/mL (≈ 0.00758 to 0.0597 µM) | 0.008 to 0.063 µg/mL (≈ 0.00758 to 0.0597 µM) | 0.125 to 8 µg/mL (≈ 0.118 to 7.58 µM) | 0.125 to 2 µg/mL (≈ 0.118 to 1.9 µM) | 2 to 32 µg/mL (≈ 1.9 to 30.3 µM) | 0.008 to 0.125 µg/mL (≈ 0.00758 to 0.118 µM) | 0.5 to 64 µg/mL |
| COc1c(N2CCC(N(C)C3=C4NC(=O)/C(C)=C\C=C\[C@H](C)[C@H](O)[C@@H](C)[C@@H](O)[C@@H](C)[C@H](OC(C)=O)[C@H](C)[C@@H](OC)/C=C/O[C@@]5(C)Oc6c(C)c(O)c(c(c6C5=O)C3=O)C4=O)C2)c(F)cc2c(=O)c(C(=O)O)cn(C3CC3)c12 (mixture of isomers) [Example 28] | 0.004 to 0.5 µg/mL (≈ 0.00374 to 0.468 µM) | 0.004 to 0.5 µg/mL (≈ 0.00374 to 0.468 µM) | 0.06 to 32 µg/mL (≈ 0.0561 to 29.9 µM) | 0.06 to 16 µg/mL (≈ 0.0561 to 15 µM) | 0.008 to 0.063 µg/mL (≈ 0.00748 to 0.0589 µM) | 0.008 to 0.063 µg/mL (≈ 0.00748 to 0.0589 µM) | 0.125 to 8 µg/mL (≈ 0.117 to 7.48 µM) | 0.125 to 2 µg/mL (≈ 0.117 to 1.87 µM) | 2 to 32 µg/mL (≈ 1.87 to 29.9 µM) | 0.008 to 0.125 µg/mL (≈ 0.00748 to 0.117 µM) | 0.5 to 64 µg/mL |
| CO[C@H]1/C=C/O[C@@]2(C)Oc3c(C)c(O)c4c(c3C2=O)C(=O)C(N2CCC(NC3CCN(c5c(F)cc6c(=O)c(C(=O)O)cn(C7CC7)c6c5Cl)C3)CC2)=C(NC(=O)/C(C)=C\C=C\[C@H](C)[C@H](O)[C@@H](C)[C@@H](O)[C@@H](C)[C@H](OC(C)=O)[C@@H]1C)C4=O (mixture of isomers) [Example 29, (R/S)-3-{4-[1-(3-Carboxy-8-chloro-1-cyclopropyl-6-fluoro-4-oxo-1,4-dihydroquinolin-7-yl)-pyrrolidin-3-ylamino]-piperidin-1-yl}rifamycin S] | 0.004 to 0.5 µg/mL (≈ 0.0035 to 0.438 µM) | 0.004 to 0.5 µg/mL (≈ 0.0035 to 0.438 µM) | 0.06 to 32 µg/mL (≈ 0.0525 to 28 µM) | 0.06 to 16 µg/mL (≈ 0.0525 to 14 µM) | 0.008 to 0.063 µg/mL (≈ 0.007 to 0.0551 µM) | 0.008 to 0.063 µg/mL (≈ 0.007 to 0.0551 µM) | 0.125 to 8 µg/mL (≈ 0.109 to 7 µM) | 0.125 to 2 µg/mL (≈ 0.109 to 1.75 µM) | 2 to 32 µg/mL (≈ 1.75 to 28 µM) | 0.008 to 0.125 µg/mL (≈ 0.007 to 0.109 µM) | 0.5 to 64 µg/mL |
| COc1c(N2CCC(NC3CCN(C4=C5NC(=O)/C(C)=C\C=C\[C@H](C)[C@H](O)[C@@H](C)[C@@H](O)[C@@H](C)[C@H](OC(C)=O)[C@H](C)[C@@H](OC)/C=C/O[C@@]6(C)Oc7c(C)c(O)c(c(c7C6=O)C4=O)C5=O)CC3)C2)c(F)cc2c(=O)c(C(=O)O)cn(C3CC3)c12 (mixture of isomers) [Example 30, (R/S)-3-{4-[1-(3-Carboxy-1-cyclopropyl-6-fluoro-8-methoxy-4-oxo-1,4-dihydroquinolin-7-yl)-pyrrolidin-3-ylamino]-piperidin-1-yl}rifamycin S] | 0.004 to 0.5 µg/mL (≈ 0.00351 to 0.439 µM) | 0.004 to 0.5 µg/mL (≈ 0.00351 to 0.439 µM) | 0.06 to 32 µg/mL (≈ 0.0527 to 28.1 µM) | 0.06 to 16 µg/mL (≈ 0.0527 to 14.1 µM) | 0.008 to 0.063 µg/mL (≈ 0.00703 to 0.0553 µM) | 0.008 to 0.063 µg/mL (≈ 0.00703 to 0.0553 µM) | 0.125 to 8 µg/mL (≈ 0.11 to 7.03 µM) | 0.125 to 2 µg/mL (≈ 0.11 to 1.76 µM) | 2 to 32 µg/mL (≈ 1.76 to 28.1 µM) | 0.008 to 0.125 µg/mL (≈ 0.00703 to 0.11 µM) | 0.5 to 64 µg/mL |
| COc1c(N2CCCC(NC3CCN(C4=C5NC(=O)/C(C)=C\C=C\[C@H](C)[C@H](O)[C@@H](C)[C@@H](O)[C@@H](C)[C@H](OC(C)=O)[C@H](C)[C@@H](OC)/C=C/O[C@@]6(C)Oc7c(C)c(O)c(c(c7C6=O)C4=O)C5=O)CC3)C2)c(F)cc2c(=O)c(C(=O)O)cn(C3CC3)c12 (mixture of isomers) [Example 32, (R/S)-3-{4-[1-(3-Carboxy-1-cyclopropyl-6-fluoro-8-methoxy-4-oxo-1,4-dihydroquinolin-7-yl)-piperidin-3-ylamino]-piperidin-1-yl}rifamycin S] | 0.004 to 0.5 µg/mL (≈ 0.00347 to 0.434 µM) | 0.004 to 0.5 µg/mL (≈ 0.00347 to 0.434 µM) | 0.06 to 32 µg/mL (≈ 0.0521 to 27.8 µM) | 0.06 to 16 µg/mL (≈ 0.0521 to 13.9 µM) | 0.008 to 0.063 µg/mL (≈ 0.00694 to 0.0547 µM) | 0.008 to 0.063 µg/mL (≈ 0.00694 to 0.0547 µM) | 0.125 to 8 µg/mL (≈ 0.108 to 6.94 µM) | 0.125 to 2 µg/mL (≈ 0.108 to 1.74 µM) | 2 to 32 µg/mL (≈ 1.74 to 27.8 µM) | 0.008 to 0.125 µg/mL (≈ 0.00694 to 0.108 µM) | 0.5 to 64 µg/mL |
